Where two headings read alike, the source gives them in different places.
Legend:
[1] = test system: Beet Armyworm (Spodoptera exigua, LAPHEG); experiment: Bioassays on Beet Armyworm (BAW), 128-well diet tray assay; assay type: in vivo; conditions: Spodoptera exigua
Procedure, shortened: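 Second-instar larvae, one to five per well, were placed on artificial diet surface-treated with 50 μg/cm^2 compound in 90:10 acetone-water, eight wells per treatment. Trays were held 5–7 days at 25 °C, 14:10 light-dark. Percent mortality per well was averaged over eight wells.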

[2] = test system: Cabbage Looper (Trichoplusia ni, TRIPNI); experiment: Bioassays on Cabbage Looper (CL), 128-well diet tray assay; assay type: in vivo; conditions: Trichoplusia ni
Procedure, shortened: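 Activity is mean percent mortality over eight wells of second-instar larvae exposed to diet treated at 50 μg/cm^2 for 5–7 days at 25° C.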

[3] = Table ABC: Biological Results, species BAW, read-out: BAW
[4] = Table ABC: Biological Results, species CL, read-out: CL
[5] = Beet Armyworm, rating class, read-out: BAW
[6] = Cabbage Looper, rating class, read-out: CL
[7] = Beet Armyworm, Table ABC / ABC-DP rating, read-out: BAW rating
[8] = Cabbage Looper, Table ABC / ABC-DP rating, read-out: CL rating

SMILES | pest or weed control at 50 µg/cm2 [1, 3] | pest or weed control at 50 µg/cm2 [2, 4] | pest or weed control at 50 µg/cm2 [1, 5] | pest or weed control at 50 µg/cm2 [2, 6] | pest or weed control at 50 µg/cm2 [1, 7] | pest or weed control at 50 µg/cm2 [2, 8] | further results
COc1c(Cl)cc(NC(=O)[C@H]2[C@H](c3ccc(F)c(Cl)c3)C2(Cl)Cl)cc1C(=O)Nc1ccc(F)cc1 (relative stereo) [F1235, trans-3-Chloro-5-(2,2-dichloro-3-(3-chloro-4-fluorophenyl)cyclopropane-1-carboxamido)-N-(4-fluorophenyl)-2-methoxybenzamide] | 50 to 100% | 50 to 100% | – | – | – | – | –
Cc1cc(NC(=O)[C@H]2[C@H](c3ccc(Cl)c(Cl)c3)C2(Cl)Cl)cc(C(=O)Nc2cc(N)c(F)cc2F)c1Cl [F1470, N-(5-Amino-2,4-difluorophenyl)-2-chloro-5-((1R,3R)-2,2-dichloro-3-(3,4-dichlorophenyl)cyclopropane-1-carboxamido)-3-methylbenzamide] | – | – | 50 to 100% | 50 to 100% | – | – | –
Cc1cc(NCCc2ccccc2)ccc1NC(=O)c1cc(NC(=O)[C@H]2[C@H](c3cc(Cl)cc(Cl)c3)C2(Cl)Cl)ccc1Cl (relative stereo) [F1177, trans-2-Chloro-5-(2,2-dichloro-3-(3,5-dichlorophenyl)cyclopropane-1-carboxamido)-N-(2-methyl-4-(phenethylamino)phenyl)benzamide] | 50 to 100% | 50 to 100% | – | – | – | – | –
CC(=O)OCCNc1ccc(NC(=O)c2cc(NC(=O)[C@H]3[C@H](c4ccc(F)c(C(F)(F)F)c4)C3(Cl)Cl)ccc2Cl)c(C)c1 [F1144, 2-((4-(2-Chloro-5-((1R,3R)-2,2-dichloro-3-(4-fluoro-3-(trifluoromethyl)phenyl)cyclopropane-1-carboxamido)benzamido)-3-methylphenyl)amino)ethyl acetate] | 50 to 100% | 50 to 100% | – | – | – | – | –
CN(NC(=O)c1cc(NC(=O)[C@H]2[C@H](c3cc(Cl)cc(Cl)c3)C2(Cl)Cl)ccc1Cl)c1ccccn1 (relative stereo) [F2503, trans-2,2-Dichloro-N-(4-chloro-3-(2-methyl-2-(pyridin-2-yl)hydrazine-1-carbonyl)phenyl)-3-(3,5-dichlorophenyl)cyclopropane-1-carboxamide] | – | – | – | – | 50 to 100% | 50 to 100% | –
C=CCN(C(=O)c1cc(NC(=O)[C@H]2[C@H](c3cc(Cl)cc(Cl)c3)C2(Cl)Cl)ccc1Cl)c1ccc(F)cc1C#N (relative stereo) [F1055, trans-N-Allyl-2-chloro-N-(2-cyano-4-fluorophenyl)-5-(2,2-dichloro-3-(3,5-dichlorophenyl)cyclopropane-1-carboxamido)benzamide] | 50 to 100% | 50 to 100% | – | – | – | – | –
O=C(Nc1c(F)ccc(NC(=O)C(F)(F)F)c1F)c1cc(NC(=O)[C@H]2[C@H](c3ccc(F)c(C(F)(F)F)c3)C2(Cl)Cl)cc(F)c1F [F1574, 5-((1R,3R)-2,2-Dichloro-3-(4-fluoro-3-(trifluoromethyl)phenyl)cyclopropane-1-carboxamido)-N-(2,6-difluoro-3-(2,2,2-trifluoroacetamido)phenyl)-2,3-difluorobenzamide] | – | – | 50 to 100% | 50 to 100% | – | – | –
O=C(Nc1ccc(F)c(NC(=O)C(F)(F)C(F)F)c1F)c1cc(NC(=O)[C@H]2[C@H](c3ccc(F)c(Br)c3)C2(Cl)Cl)ccc1Cl [F1715, 5-((1R,3R)-3-(3-Bromo-4-fluorophenyl)-2,2-dichlorocyclopropane-1-carboxamido)-2-chloro-N-(2,4-difluoro-3-(2,2,3,3-tetrafluoropropanamido)phenyl)benzamide] | – | – | 50 to 100% | 50 to 100% | – | – | –
COc1c(Cl)cc(NC(=O)[C@H]2[C@H](c3ccc(F)c(Cl)c3)C2(Cl)Cl)cc1C(=O)NCC(F)(F)C(F)(F)F (relative stereo) [F2062, trans-3-Chloro-5-(2,2-dichloro-3-(3-chloro-4-fluorophenyl)cyclopropane-1-carboxamido)-2-methoxy-N-(2,2,3,3,3-pentafluoropropyl)benzamide] | – | – | – | – | 50 to 100% | 50 to 100% | –
Cc1cc(NC(=O)[C@H]2[C@H](c3cc(Cl)c(Cl)c(Cl)c3)C2(Cl)Cl)cc(C(=O)Nc2ccc(F)c(N)c2F)c1Cl [F1449, N-(3-Amino-2,4-difluorophenyl)-2-chloro-5-((1R,3R)-2,2-dichloro-3-(3,4,5-trichlorophenyl)cyclopropane-1-carboxamido)-3-methylbenzamide] | – | – | 50 to 100% | 50 to 100% | – | – | –
O=C(Nc1cc(NC(=O)C(F)(F)F)c(F)cc1F)c1cc(NC(=O)[C@H]2[C@H](c3cc(Cl)c(Cl)c(Cl)c3)C2(Cl)Cl)ccc1Cl [F1519, 2-Chloro-5-((1R,3R)-2,2-dichloro-3-(3,4,5-trichlorophenyl)cyclopropane-1-carboxamido)-N-(2,4-difluoro-5-(2,2,2-trifluoroacetamido)phenyl)benzamide] | – | – | 50 to 100% | 50 to 100% | – | – | –
CN(C)CC(=O)N(C)NC(=O)c1cc(NC(=O)[C@H]2[C@H](c3cc(Cl)cc(Cl)c3)C2(Cl)Cl)ccc1Cl (relative stereo) [F2526, trans-2,2-Dichloro-N-(4-chloro-3-(2-(dimethylglycyl)-2-methylhydrazine-1-carbonyl)phenyl)-3-(3,5-dichlorophenyl)cyclopropane-1-carboxamide] | – | – | – | – | 50 to 100% | 50 to 100% | –
CCC(=O)Nc1c(F)ccc(NC(=O)c2cc(NC(=O)[C@H]3[C@H](c4ccc(Cl)c(Cl)c4)C3(Cl)Cl)ccc2Cl)c1F [F1472, 2-Chloro-5-((1R,3R)-2,2-dichloro-3-(3,4-dichlorophenyl)cyclopropane-1-carboxamido)-N-(2,4-difluoro-3-propionamidophenyl)benzamide] | – | – | 50 to 100% | 50 to 100% | – | – | –
O=C(NN=Cc1nccs1)c1cc(NC(=O)[C@H]2[C@H](c3cc(Cl)cc(Cl)c3)C2(Cl)Cl)ccc1Cl (relative stereo) [F3006, trans-2,2-Dichloro-N-(4-chloro-3-(2-(thiazol-2-ylmethylene)hydrazine-1-carbonyl)phenyl)-3-(3,5-dichlorophenyl)cyclopropane-1-carboxamide] | – | – | – | – | 50 to 100% | 50 to 100% | mortality at 50 µg/cm2 ([1]; 168 h, second instar larvae, 50 μg/cm^2 of test molecule on artificial diet, 25° C., five to seven days, average of eight wells, read-out: BAW % Control (or Mortality) rating): 50 to 100%; mortality at 50 µg/cm2 ([2]; 168 h, second instar larvae, 50 μg/cm^2 of test molecule on artificial diet, 25° C., five to seven days, average of eight wells, read-out: CL % Control (or Mortality) rating): 50 to 100%
Nc1cc(F)c(NC(=O)c2cc(NC(=O)[C@H]3[C@H](c4ccc(Cl)c(Cl)c4)C3(Cl)Cl)ccc2Cl)c(F)c1 [F1028, N-(4-Amino-2,6-difluorophenyl)-2-chloro-5-((1R,3R)-2,2-dichloro-3-(3,4-dichlorophenyl)cyclopropane-1-carboxamido)benzamide] | 50 to 100% | 50 to 100% | – | – | – | – | –
O=C(Nc1c(F)ccc(NC(=O)C(F)(F)C(F)(F)C(F)(F)F)c1F)c1cc(NC(=O)[C@H]2[C@H](c3cc(Cl)c(Cl)c(Cl)c3)C2(Cl)Cl)cc(F)c1F [F1779, 5-((1R,3R)-2,2-Dichloro-3-(3,4,5-trichlorophenyl)cyclopropane-1-carboxamido)-N-(2,6-difluoro-3-(2,2,3,3,4,4,4-heptafluorobutanamido)phenyl)-2,3-difluorobenzamide] | – | – | – | – | 50 to 100% | 50 to 100% | –
O=C(Nc1cc(F)c(NC(=O)C(F)F)c(F)c1)c1cc(NC(=O)[C@H]2[C@H](c3ccc(Cl)c(Cl)c3)C2(Cl)Cl)ccc1Cl (relative stereo) [F1122, trans-2-Chloro-5-(2,2-dichloro-3-(3,4-dichlorophenyl)cyclopropane-1-carboxamido)-N-(4-(2,2-difluoroacetamido)-3,5-difluorophenyl)benzamide] | 50 to 100% | 50 to 100% | – | – | – | – | –
CC1OC1C(=O)Nc1c(F)ccc(NC(=O)c2cc(NC(=O)[C@H]3[C@H](c4ccc(F)c(C(F)(F)F)c4)C3(Cl)Cl)ccc2Cl)c1F (stereo partly drawn) [F1748, N-(3-(2-Chloro-5-((1R,3R)-2,2-dichloro-3-(4-fluoro-3-(trifluoromethyl)phenyl)cyclopropane-1-carboxamido)benzamido)-2,6-difluorophenyl)-3-methyloxirane-2-carboxamide] | – | – | 50 to 100% | 50 to 100% | – | – | –
CCOC(C)C(=O)N(C)c1c(F)ccc(NC(=O)c2cc(NC(=O)[C@H]3[C@H](c4ccc(Cl)c(Cl)c4)C3(Cl)Cl)ccc2Cl)c1F (stereo partly drawn) [F1616, 2-Chloro-5-((1R,3R)-2,2-dichloro-3-(3,4-dichlorophenyl)cyclopropane-1-carboxamido)-N-(3-(2-ethoxy-N-methylpropanamido)-2,4-difluorophenyl)benzamide] | – | – | 50 to 100% | 50 to 100% | – | – | –
CC(=O)C1(C(=O)Nc2c(F)ccc(NC(=O)c3cc(NC(=O)[C@H]4[C@H](c5ccc(F)c(C(F)(F)F)c5)C4(Cl)Cl)ccc3Cl)c2F)CC1 [F1850, N-(3-(1-Acetylcyclopropane-1-carboxamido)-2,4-difluorophenyl)-2-chloro-5-((1R,3R)-2,2-dichloro-3-(4-fluoro-3-(trifluoromethyl)phenyl)cyclopropane-1-carboxamido)benzamide] | – | – | – | – | 50 to 100% | 50 to 100% | –

— patent US20250228239A1, “MOLECULES HAVING PESTICIDAL UTILITY, AND INTERMEDIATES, COMPOSITIONS, AND PROCESSES, RELATED THERETO” (priority 2024, published 2025)
